Data as given in publication PMC11002876, “KcsA-Kv1.x chimeras with complete ligand-binding sites provide improved predictivity for screening selective Kv1.x blockers” (The Journal of Biological Chemistry, 2024).
Where a SMILES comes first, the peptide text is derived from it.

The compounds below were run against T1, KcsA-Kv1.3 T+F chimera (Streptomyces lividans, UniProt P0A334, A54D/A57S/G53D/G56T/I60S/L59F/L81M/Q58G/R52A/R64D/T61S/Y62I/Y82H) (assay: Phage ELISA-binding assay, KcsA-Kv1.3 T+F). Settings: toxin displayed on M13 phage, Fig. 6D.
T1 construct: made in house; host or cells: E. coli C41(DE3) (pET45b)
T1 sequence (P0A334 1-160 R52A/G53D/A54D/G56T/A57S/Q58G/L59F/I60S/T61S/Y62I/R64D/L81M/Y82H): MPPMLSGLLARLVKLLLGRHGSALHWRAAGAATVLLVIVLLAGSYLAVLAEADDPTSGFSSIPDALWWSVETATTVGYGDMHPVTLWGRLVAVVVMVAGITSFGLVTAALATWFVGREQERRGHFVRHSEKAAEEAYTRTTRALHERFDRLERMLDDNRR
Set-up: species or system human Kv1.3 turret and filter in Streptomyces lividans KcsA
Method: Phage display test solutions were prepared according to routine phage display protocols ([62]). Phosphorylated and annealed oligonucleotides encoding the peptide construct were ligated into linearized pAS62 phagemid vector (https://patents.google.com/patent/WO2022144560A1/en) at a vector/insert ratio of 1:3. The final phagemid construct harbored a signal sequence followed by the peptide of interest, a linker sequence ([…]), and the C-terminal part of the P3 coat protein (amino acids: 216-424 of NP_510891.1). Chemically competent XL1-Blue E. coli cells (2022249, Agilent) were transformed with the ligation product and then streaked onto ampicillin (100 μg/ml) containing LB/Amp plates and incubated for 16 h at 37 °C. A few clones were sequenced, and a single colony with confirmed target sequence was inoculated into 3 ml 2 YT medium supplemented with 100 μg/ml ampicillin and incubated at 37 °C until the culture reached midlog phase. The culture was infected with M13KO7 helper phage (N0315S, New England Biolabs) (phage/cell ratio 10:1) and was incubated for 30 min at 37 °C. The 3 ml culture was transferred into 200 ml 2YT medium, supplemented with 100 μg/ml ampicillin and 25 μg/ml kanamycin, and incubated overnight at 37 °C. The overnight cell culture (200 ml) was pelleted by centrifugation at 8000g for 10 min in 400 ml centrifuge tubes at 4 °C. […] The particle concentrations of phage solutions were determined using a NanoDrop One C (Thermo Fisher Scientific) spectrophotometer. The phage particle concentration was assessed according to the formula: (A268–A320) × 5 × 10^12 particles/ml ([62]). […]
Phage stock solutions were diluted to working concentration with phage resuspension buffer supplemented with 2 mM DDM. […] Following blocking, the wells were washed 4× with washing buffer (300 μl TBS-Tween, 0.1% v/v) using a Wellwash Versa microplate washer (Thermo Fisher Scientific); then 50 μl phage solution (in TBS-BSA-Tween, 0.1% v/v, 2 mM DDM) at determined phage concentration was added to the wells and incubated for 1 h at room temperature on a horizontal shaker. […]

Structure (SMILES)	rank order of phage binding to KcsA-Kv1.3 T+F
CC[C@H](C)[C@@H]1NC(=O)CNC(=O)[C@H](Cc2ccccc2)NC(=O)[C@H](CCC(N)=O)NC(=O)[C@H](C)NC(=O)[C@H](CCCCN)NC(=O)[C@@H]2CSSC[C@@H](C(=O)N[C@@H](Cc3ccc(O)cc3)C(=O)N3CCC[C@H]3C(=O)N[C@@H](Cc3c[nH]cn3)C(=O)O)NC(=O)[C@H](CCCCN)NC(=O)[C@@H]3CSSC[C@H](NC(=O)[C@H](CCC(N)=O)NC(=O)[C@H](CCCCN)NC(=O)[C@@H]4CCCN4C(=O)[C@H](CO)NC(=O)[C@H]([C@@H](C)O)NC(=O)[C@@H](NC(=O)[C@H](CCCCN)NC(=O)[C@@H](NC(=O)[C@H](CC(=O)O)NC(=O)[C@@H](NC(=O)[C@@H](NC(=O)[C@@H](N)[C@@H](C)O)C(C)C)[C@@H](C)CC)C(C)C)CSSC[C@H](NC(=O)[C@H](CCCCN)NC(=O)[C@H](C)NC(=O)CNC(=O)[C@H](C)NC(=O)[C@H](CCCNC(=N)N)NC1=O)C(=O)N[C@@H](CCSC)C(=O)N[C@@H](CC(N)=O)C(=O)NCC(=O)N[C@@H](CCCCN)C(=O)N3)C(=O)N[C@@H](CC(C)C)C(=O)N1CCC[C@H]1C(=O)N1CCC[C@H]1C(=O)N2 [HgTx1, Hongotoxin-1] (HELM PEPTIDE1{T.V.I.D.V.K.C.T.S.P.K.Q.C.L.P.P.C.K.A.Q.F.G.I.R.A.G.A.K.C.M.N.G.K.C.K.C.Y.P.H}$PEPTIDE1,PEPTIDE1,7:R3-29:R3|PEPTIDE1,PEPTIDE1,13:R3-34:R3|PEPTIDE1,PEPTIDE1,17:R3-36:R3$$$V2.0; N-terminus and C-terminus assumed)	Vm24 > HgTx1 > KTX1
CC[C@H](C)[C@H](NC(=O)[C@H](CCC(=O)O)NC(=O)[C@@H](NC(=O)CN)C(C)C)C(=O)N[C@@H](CC(N)=O)C(=O)N[C@H](C(=O)N[C@@H](CCCCN)C(=O)N[C@H]1CSSC[C@@H]2NC(=O)[C@H](CCCCN)NC(=O)CNC(=O)[C@H](Cc3ccccc3)NC(=O)[C@H](CCCNC(=N)N)NC(=O)[C@H](CCSC)NC(=O)CNC(=O)[C@H](C)NC(=O)[C@H](CC(=O)O)NC(=O)[C@H](CCCCN)NC(=O)[C@@H]3CSSC[C@@H](C(=O)N[C@H](C(=O)N4CCC[C@H]4C(=O)N[C@@H](CCCCN)C(=O)O)[C@@H](C)O)NC(=O)[C@H](Cc4c[nH]cn4)NC(=O)[C@H](CSSC[C@H](NC(=O)[C@H](CCC(N)=O)NC(=O)[C@@H]4CCCN4C(=O)[C@H](CO)NC(=O)CNC(=O)[C@H](CO)NC1=O)C(=O)N[C@@H](CC(C)C)C(=O)N[C@@H](CCCCN)C(=O)N1CCC[C@H]1C(=O)N3)NC(=O)[C@H](CCCCN)NC(=O)[C@H](CCCNC(=N)N)NC(=O)[C@H](CC(N)=O)NC(=O)[C@H](CCSC)NC2=O)C(C)C [KTX1, Kaliotoxin-1]	Vm24 > HgTx1 > KTX1
CC[C@H](C)[C@H](NC(=O)[C@H](C)NC(=O)[C@H](C)NC(=O)[C@H](C)N)C(=O)N[C@@H](CO)C(=O)N[C@H]1CSSC[C@@H]2NC(=O)[C@H](CCCCN)NC(=O)CNC(=O)[C@H](CC(N)=O)NC(=O)[C@H](CCCCN)NC(=O)[C@@H]3CSSC[C@@H](C(N)=O)NC(=O)[C@H](Cc4ccc(O)cc4)NC(=O)[C@H](Cc4ccc(O)cc4)NC(=O)[C@@H]4CSSC[C@H](NC(=O)[C@H](CCCCN)NC(=O)[C@@H]5CCCN5C(=O)[C@@H]5CCCN5C(=O)[C@H](CSSC[C@H](NC(=O)[C@H](CCCCN)NC(=O)[C@H](CCCNC(=N)N)NC(=O)[C@H](CC(N)=O)NC(=O)[C@H](CCSC)NC2=O)C(=O)N[C@@H](CCCCN)C(=O)N4)NC(=O)[C@H](CCC(=O)O)NC(=O)[C@@H]2CCCN2C(=O)[C@H](CO)NC(=O)CNC(=O)[C@H](C(C)C)NC1=O)C(=O)N[C@@H](CCCNC(=N)N)C(=O)N[C@@H](C)C(=O)N[C@@H](CCC(N)=O)C(=O)NCC(=O)N3 [Vm24, Vm24 toxin]	Vm24 > HgTx1 > KTX1
